Reference: US20250122193A1, “NOVEL PYRIDOCARBAZOLIUM COMPOUNDS AND MEDICAL USES THEREOF” (MyCural Therapeutics, priority 2021, published 2025)

Key:
Format in all cases: cell-based
[1] = test system: wt and p53-deficient HCT116 cells; assay: WST1 assay in wt and p53-deficient HCT116 cells; details: titration
[2] = test system: normal human peripheral blood lymphocytes; assay: apoptosis assay (Cell Death Detection ELISA), peripheral blood lymphocytes; details: 5 μM, 24 and 48 hours
Protocol: FIG. 4: MYCMI-7 induces apoptosis in malignant cells and growth arrest in normal cells. A) Cell cycle distribution analysis by flow cytometry of MYC-regulated P493-6 cells and normal rat embryo fibroblasts (REFs). Left panel, P493-6 synchronized in G0 by 24 hours treatment of […] doxycycline. Doxycycline was removed and the cells were harvested 48 hours after the addition of fresh medium containing DMSO or 5 μM MYCMI-7. Right panel, flow cytometry analysis of normal REFs treated with DMSO or 5 μM MYCMI-7. B) Apoptosis assay using the Cell Death Detection ELISA^plus kit. Left panel, immortalized Rat1 fibroblasts with different MYC status after 24 hours of 5 μM MYCMI-7 treatment, middle panel and right panels, normal REFs and normal peripheral blood lymphocytes, respectively, after 24 and 48 hours of 5 μM MYCMI-7 treatment. C) Measurement of viability and apoptosis by Apo-Tox Glo Triplex assay in A375 melanoma cells after 3 days of treatment with MYCMI-7 with the indicated concentrations. […] E) NHDFs treated with 3 μM MYCMI-7 for 72 hrs. Viability was measured by trypan blue exclusion assay. F) Cell growth measured with Cyt62 assay of primary normal human epidermal melanocytes (NHEM) treated for 72 hours with MYCMI-7, G) Viability measured by trypan blue exclusion assay of NHEM after treatment for 72 hours with MYCMI-7.

FRA1:JUN interaction = target: T1, FRA1:JUN interaction (Homo sapiens, UniProt P05412+P15407); assay: in situ proximity ligation assay (isPLA), FRA1:JUN; details: 5 μM, 24 hours, MCF-7 cells
T1 construct: endogenous in cells; host or cells: MCF7
T1 sequence (P15407 whole entry): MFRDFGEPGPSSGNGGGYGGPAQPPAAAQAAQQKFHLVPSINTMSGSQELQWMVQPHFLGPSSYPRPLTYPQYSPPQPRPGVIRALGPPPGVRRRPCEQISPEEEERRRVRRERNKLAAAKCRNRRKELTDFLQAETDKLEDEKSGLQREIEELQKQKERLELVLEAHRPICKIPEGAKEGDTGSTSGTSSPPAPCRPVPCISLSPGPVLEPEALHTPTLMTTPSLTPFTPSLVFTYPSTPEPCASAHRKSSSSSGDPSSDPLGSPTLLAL
T1 sequence (P05412 whole entry): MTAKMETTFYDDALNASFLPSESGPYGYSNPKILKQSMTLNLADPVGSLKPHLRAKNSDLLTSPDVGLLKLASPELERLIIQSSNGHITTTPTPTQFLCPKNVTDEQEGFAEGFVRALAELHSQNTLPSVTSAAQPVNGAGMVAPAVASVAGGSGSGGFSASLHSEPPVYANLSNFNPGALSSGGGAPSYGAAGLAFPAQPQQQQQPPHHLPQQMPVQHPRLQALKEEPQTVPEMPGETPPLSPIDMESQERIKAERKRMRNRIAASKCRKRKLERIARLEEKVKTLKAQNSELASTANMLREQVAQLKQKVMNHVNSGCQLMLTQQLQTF

## CCN(CC)CC[n+]1ccc2c(C)c3[nH]c4ccccc4c3c(C)c2c1 [MYCMI-7, 2-(5,11-Dimethyl-6H-25-pyrido[4,3-b]carbazol-2-yl)-N,N-diethylethanamine bromide]
[1]
  growth response or MYC expression, wt versus p53-deficient cells: no difference
[2]
  apoptosis: did not induce apoptosis
FRA1:JUN interaction
  inhibition of FRA1:JUN interaction (isPLA): not
